Measured values as given in the METLIN SMRT retention time set (Domingo-Almenara et al. 2019).

test: gradient 5% acetonitrile 3 min, to 50% in 2 min, to 85% in 15 min, held 3 min, 100 µL/min; details: column: Zorbax Extend-C18 2.1 x 50 mm; eluents: water / acetonitrile, 0.1% formic acid
Procedure, shortened: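 Using water and acetonitrile that each contained 0.1% formic acid, mixtures of ~100 pure standards were separated at 100 μL/min on a Zorbax Extend-C18 column (2.1 × 50 mm, 1.8 μm). The HPLC fed a quadrupole time-of-flight mass spectrometer working in positive and negative ionization mode, with dead and dwell volumes of 40 μL and 900 μL. Data were acquired over 3 months. Retention time was read from computationally picked adduct peaks after manual inspection of each.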

| SMILES | RP-LC retention time [s] |
| --- | --- |
| Cc1ccc(-c2ccc(=O)n(CCc3nc(-c4ccc5c(c4)OCO5)no3)n2)cc1 | 711 |
| Cc1cc(Cl)ccc1NC(=O)N1CCC2(CC1)c1nccn1CCN2C | 612 |
| Cn1nc(C(=O)N2CCCN(c3cc(-c4ccccc4)[nH]n3)CC2)c2ccccc21 | 700 |
| CN(C)C(=O)c1cc(N(C)C)nc2c(Cl)cccc12 | 745 |
| CN1C(=O)c2cc(C(=O)NCCC3=CCCCC3)nn2CC1(C)C(=O)NCc1ccccc1 (configuration not stated) | 853 |
| COc1ccc(-c2cc(C(=O)Nc3cc(C)cc(C)c3)nn2C2CCS(=O)(=O)C2)cc1 (configuration not stated) | 741 |
| CCOC(=O)c1c(C)[nH]c(CCC(=O)NC2CCCC2)c1C | 780 |
| Cc1nc(-n2cccc2)sc1C(=O)N1CCN(C(=O)c2ccco2)CC1 | 713 |
| Oc1ccc(-c2nc3ncccn3c2Nc2ccc3c(c2)OCCO3)cc1 | 610 |
| CCOc1ccc(NC(=O)N2CCCN(c3ncccc3-c3nc(C4CC4)no3)CC2)cc1 | 944 |
| O=C(Cn1cccc(-c2nc(-c3ccc(F)cc3)no2)c1=O)NCc1ccccc1Br | 898 |
| Cc1cc2nc(Nc3ncc4c(n3)CC(c3ccccc3)CC4=O)nc(C)c2cc1C (configuration not stated) | 793 |
| CCCNc1cc(N2CCC(CCC(=O)NCc3ccccc3)CC2)ncn1 | 666 |
| Cc1ccc(Cn2c(N3CCCC(C(=O)NC4CCCCC4)C3)nc3ccsc3c2=O)cc1 (configuration not stated) | 1020 |
| CCCCNC(=O)Cn1nc(C)c2nn(-c3ccc(Cl)cc3)c(-n3cccc3)c2c1=O | 1020 |
| CN(C)C(=O)c1n[nH]c2c1CN(C(=O)CCC(=O)c1ccc(F)cc1)CC2 | 653 |
| CN(CC(=O)N1CCN(c2ccccc2)CC1)S(=O)(=O)c1ccc2c(c1)CCCC(=O)N2 | 737 |
| O=C(Cc1cccc(F)c1)Nc1cc(-c2cccs2)no1 | 947 |
| Cc1ccc(-c2nc3ccccn3c2NC(=O)Nc2cccc(C)c2)cc1 | 716 |
| CN(C(=O)Nc1ccccc1)C1CCc2nn(CC3CC3)c(=O)n2CC1 (configuration not stated) | 681 |
| Cc1cccc(CN2CC(=O)N(c3cccc(Cl)c3)[C@@H]3CS(=O)(=O)C[C@@H]32)c1 | 892 |
| CCOc1ccc(S(=O)(=O)N2CC=C(c3cn(C(C)C)c4ncccc34)CC2)cc1 | 645 |

| SMILES | RP-LC retention time [s] |
| --- | --- |
| COc1ccc(C)cc1NC(=O)C1CCCN(c2ncnc3c2nc2n3CCCCC2)C1 (configuration not stated) | 864 |
| O=C(Cn1ncc2c(N3CCN(c4ccccn4)CC3)ncnc21)Nc1ccccc1Br | 608 |
| Cc1oc(C2CCN(S(=O)(=O)c3ccc(F)c(F)c3)CC2)nc1C(=O)N1CCCC1 | 936 |
| CCc1nnc([C@@H]2CC(F)(F)CN2C(=O)c2n[nH]c3ccccc23)o1 | 734 |
| OCC1CN(c2ncccn2)CC12CCN(Cc1cc(Cl)ccc1F)CC2 (configuration not stated) | 577 |
| CCOc1ccccc1N1CCN(S(=O)(=O)c2nn(CC)cc2C(=O)NCCC(C)C)CC1 | 1130 |
| CCCNC(=O)C1CCCN(S(=O)(=O)c2cc(-c3noc(CC)n3)cs2)C1 (configuration not stated) | 841 |
| COc1cc(C2C(=O)N(C3CCCC3)CC(=O)N2Cc2ccco2)ccc1OC(C)C (configuration not stated) | 915 |
| CCCN1CCCCc2cc(C(=O)NCC(F)F)sc21 | 932 |
| CCOc1ccc(CNS(=O)(=O)c2cc(-c3c(C)noc3NC(C)=O)ccc2OC)cc1 | 785 |
| COc1ccc(CNC(=O)CN2C(=O)CSc3cccn3-c3ccccc32)c(OC)c1 | 868 |
| CCN(CC)C(=O)c1cc(NS(=O)(=O)c2ccc(C(C)(C)C)cc2)cnc1N1CCNCC1 | 680 |
| Cc1nc([N+](=O)[O-])c(Sc2nc3ccccc3[nH]2)n1Cc1ccccc1 | 702 |
| Cn1ncc2c(N3CCSCC3)nc(C(=O)NCc3ccccn3)nc21 | 592 |
| O=C(NCC1CCN(S(=O)(=O)C2CC2)CC1)Oc1ccccc1 | 745 |
| COCCNC(=O)CN1c2ccccc2NC2=C(C(=O)CC(C)(C)C2)C1c1ccccc1OC (configuration not stated) | 756 |
| COc1cc(OC)cc(-c2nc(-c3ccc4c(c3)oc(=O)n4C(C)C)no2)c1 | 1080 |
| Cc1ccc(-c2nnc(-c3cccc(S(=O)(=O)Nc4cccnc4)c3)o2)cc1 | 775 |
| CCN(C(=O)c1cccs1)c1nc(-c2ccccc2)cs1 | 1220 |
| O=C(C1CCN(S(=O)(=O)N2CCOCC2)CC1)N1CCC(c2nc(C3CCOCC3)no2)CC1 | 674 |
| CC1CCN(CC[C@H]2CCCN2S(=O)(=O)c2cccc(O)c2)CC1 | 646 |
| COc1ccc(-n2c(N)cc(=O)nc2SCC(=O)NC2CCCCC2)cc1 | 601 |

| SMILES | RP-LC retention time [s] |
| --- | --- |
| O=C1/C(=C/c2cc(Br)cc3c2OCOC3)Oc2cc(OC(=O)C3CC3)ccc21 | 1200 |
| CCc1ccc(NC(=O)Cn2c(C)nc3cc4c(cc32)OCCO4)cc1 | 668 |
| CCOc1ccc(-c2noc(CN3C(=O)COc4ccc(Cl)cc43)n2)cc1OC | 1050 |
| CCc1cccc(NS(=O)(=O)c2ccc3c(c2)CCCC(=O)N3)c1 | 780 |
| CN(CC1CCOCC1)C(=O)c1cccs1 | 664 |
| CCOC(=O)N1CCN(C(=O)CSc2nc(=O)[nH]c3c2CCC3)CC1 | 574 |
| CC1CCN(S(=O)(=O)c2ccc3nn(CC(=O)OC(C)(C)C)c(=O)n3c2)CC1 | 999 |
| CCn1cc(CC(=O)NCc2ccc(N3CCOCC3)cc2)c2cccnc21 | 632 |
| CCN1c2ccc(C)cc2C(=O)NC12CCN(C(=O)c1ccc3c(c1)OCO3)CC2 | 788 |
| O=c1ccc(-c2nc(-c3ccncc3)no2)nn1Cc1cccc(Br)c1 | 919 |
| C#CCn1cnc2c(oc3ccccc32)c1=O | 673 |
| O=C(CC1CCN(S(=O)(=O)c2ccc(Cl)s2)CC1)N1CCN(c2ncccn2)CC1 | 872 |
| Cc1ccc(CNC(=O)C2CCN(S(=O)(=O)c3ccc(-c4noc(C5CC5)n4)cc3)CC2)o1 | 938 |
| O=C(CN1C(=O)CN(C(=O)Nc2ccccc2)c2ccccc21)N1CCCc2ccccc21 | 940 |
| COc1ccc(C(=O)N2CCC3(C2)C(=O)N(C)c2ccccc23)cc1OC (configuration not stated) | 714 |
| CC(=O)N1C[C@@H]2CCCN3CCC[C@@H]([C@H]23)[C@H]1CCCC(=O)NCCCN(C)C1CCCCC1 | 547 |
| CC1Oc2ccccc2N(CC(=O)N2CCCN(c3cc(=O)n(C(C)C)c(=O)n3C(C)C)CC2)C1=O (configuration not stated) | 845 |
| CCOC(=O)c1noc2ncnc(Nc3ccc(F)cc3F)c12 | 799 |
| CCC1Oc2ccc(S(=O)(=O)N3CCC(C(=O)Nc4ccc(F)cc4)CC3)cc2NC1=O (configuration not stated) | 866 |
| CC[C@H](C)C(=O)O[C@H]1CCC=C2C=C[C@H](C)[C@H](CC[C@@H](O)C[C@@H](O)CC(=O)O)[C@H]21 | 910 |
| CCN1c2ccc(F)cc2C(=O)NC12CCN(C(=O)c1ccc(C)cc1C)CC2 | 861 |
| CCCCOc1ccc(-c2cc3c(N4CCN(C)CC4)nccn3n2)cc1 | 754 |

| SMILES | RP-LC retention time [s] |
| --- | --- |
| COc1cccc(NC(=O)NC2CCN(c3ccc(F)c(C)c3)C2=O)c1 (configuration not stated) | 818 |
| Cc1[nH]nc(-c2ccc(S(=O)(=O)NCCc3ccc(S(N)(=O)=O)cc3)o2)c1C | 697 |
| Cc1cccc(C)c1-n1ccn(Cc2nc(-c3ccc(Cl)cc3)no2)c(=O)c1=O | 978 |
| Cc1ccc(S(=O)(=O)NCC(c2cccnc2)c2cn(C)c3ccccc23)cc1C (configuration not stated) | 790 |
| Cc1cc(OC(C)C(=O)N2CCC3(O)CCCCC3C2)c2c3c(c(=O)oc2c1)CCCC3 (configuration not stated) | 892 |
| CCN1CCN(C(=O)C2CCCN(c3ncnc4c3nc3n4CCCCC3)C2)CC1 (configuration not stated) | 575 |
| CCC(=O)N1CCc2sc(C(=O)NCc3ccc(CC)cc3)cc2C1 | 824 |
| O=C(CCc1nc(-c2ccc(N3CCCC3)cc2)no1)NCCCN1CCOCC1 | 655 |
| CC(=O)Nc1cccc(C2OC(c3c(OC(C)=O)ccc4ccccc34)=NN2C(C)=O)c1 (configuration not stated) | 838 |
| CCc1cccc(C)c1Nc1c(-c2ccc(OC)cc2)nc2cnccn12 | 873 |
| COc1cccc(C(=O)CC2(O)C(=O)Nc3c(C)cccc32)c1 (configuration not stated) | 728 |
| CCN1CCC(N(Cc2ccc3c(c2)OCO3)C(=O)Nc2cccc(C)c2)CC1 | 691 |
| Cc1cc(NC(=O)CN2C(=O)C(C(=O)N3CCCC3)Sc3ccccc32)ccc1Br (configuration not stated) | 971 |
| O=C(Cn1cnc2c(nc3n2CCCCC3)c1=O)N1CCN(c2ccc(Cl)cc2)CC1 | 750 |
| CCC(=O)N1c2ccc(S(=O)(=O)N3CCCCC3)cc2CC1C(=O)NC1CC1 (configuration not stated) | 758 |
| Cc1ccnc(Nc2nc(-c3ccc(Cl)cc3)cs2)c1 | 947 |
| COc1cc(NC(=O)CN2C(=O)C(O)(c3cccc(F)c3)c3ccccc32)cc(OC)c1 (configuration not stated) | 894 |
| CCCCC(=O)N(CC)c1nc(-c2ccccc2)cs1 | 1330 |
| CC(C)CC(=O)Nc1ccc(OCc2cc(C(=O)NC3CCCC3)no2)cc1 | 890 |
| COc1cc(C2NCCc3c2[nH]c2ccccc32)ccc1OC(C)C (configuration not stated) | 676 |
| Cc1cc(C)n(-c2cc(SCC(=O)NCc3ccco3)ncn2)n1 | 779 |
